In patent US7659113B2 (priority 2002, dated 2010):
“Also recorded” adds a separate entry of the source.

How the values were obtained:
wild type FPV M2 = wild type FPV M2 (Influenza A virus, UniProt P03492); assay: cell-based; type: cell-based
VSV = conditions: cited from earlier work
[1] = tested on: VSV-G pseudotyped SIN-6.1CZW vector; type: cell-based
[2] = tested on: VSV-G pseudotyped SIN-6.1CZW vector; type: cell-based; remark: listed apart in the source
influenza virus = conditions: cited from earlier work
[3] = tested on: FPV HA/M2 pseudotyped SIN-6.1CZW vector; type: cell-based

wild type FPV M2, sequence (P03492 whole entry, looked up): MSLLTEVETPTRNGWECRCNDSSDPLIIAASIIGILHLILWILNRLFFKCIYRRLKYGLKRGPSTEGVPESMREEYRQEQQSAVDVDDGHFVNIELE

NC12CC3CC(CC(C3)C1)C2 [amantadine]
effect on vector production (wild type FPV M2): inhibits the augmentation of HA pseudotyping by M2; also recorded: potent dose-dependent effect | inhibition at 5 µM (wild type FPV M2; read-out: inhibition of M2 augmented vector production): 70% | VSV replication, sensitivity to amantadine (VSV): refractory | effect on gene transfer by VSV-G pseudotyped vector [1]: did not affect gene transfer | effect on pseudotyping of SIN-6.1CZW by VSV-G [2]: did not affect | inhibition of influenza virus replication in cell culture (influenza virus): effective inhibitor | effect on gene transfer step of HA pseudotyped vector [3]: affected the gene transfer step; also recorded: Higher doses were required to inhibit transduction than to inhibit vector production
